# “And” between values parts separate entries of the source, which are not always exact repeats. Identical values can stand only once.
# Columns and labels:
# [1] = system: serum uric acid; experiment: Serum uric acid after a single dose (tablet or suspension) in healthy human subjects (Example 33); assay type: in vivo; conditions: individual subjects
# Experimental: Thirty six healthy human subjects are administered either […] or a suspension containing the noted amount of the compound of Example 3 after fasting for at least 8 hours. subjects are administered 200 mg of compound; twelve subjects are administered 400 mg of compound; and twelve subjects are administered 600 mg of compound. Blood was collected before subjects are given the compound (Day −1) and the day following administration (Day 2). Serum uric levels may be measured using standard automated procedures on a uricase peroxidase method. Serum uric acid levels are […] in mg/dL.
# [2] = system: serum uric acid; experiment: Serum uric acid during 28-day once-daily oral dosing, placebo-controlled study in 48 subjects (Example 34); assay type: in vivo, human
# Experimental: In another study, 48 subjects were divided into four groups, A, B, C and D, and administered the noted amount of the compound of Example 3. Each group was composed of 12 subjects of whom 9 received the compound and 3 received placebo. The non-placebo members of group A received 50 mg of compound, administered orally once a day for 28 days as a single 50 mg tablet. The non-placebo members of group B received 200 mg of compound administered orally once a day for 28 days as a single 200 mg tablet. The non-placebo members of group C received 500 mg of compound administered orally once a day for 28 days as two 50 mg tablets and two 200 mg tablets. The non-placebo members of group D received 800 mg of compound administered orally once a day for 28 days as four 200 mg tablets. The 3 placebo members of each group, received an amount of placebo, as a tablet, equivalent to the amount of test compound—50 mg placebo for group A, 200 mg placebo for group B, 500 mg placebo for group C and 800 mg placebo for group D. Each subject received a single dose of either compound or placebo for 28 days. The subjects were confined at the clinical site beginning the day before dose administration until 72 hours after the final dose administration on Day 28 and returned for an outpatient visit on Day 35.
# Uric acid levels were measured prior to beginning the study (screening), on the day immediately prior to commencement of the study (day-1), and then as noted in the table. Hours indicates the time since the last dose was administered. For example, Day 7, 0 hour indicates the time the serum uric acid level at the time the dose was administered and Day 7, 2 hour indicates the uric acid level two hours after the adminstration that day. Further, the Day 30, 60 hour level is the serum uric acid level measured 60 hours (on Day 30) after the last dose was administered on Day 28. The uric acid levels are presented in mg/dL as a mean of all subjects in each group.
smiles,measurement,setting,value
"O=C(O)Cn1cc(Cc2nc3c(F)c(F)cc(F)c3s2)c2ccccc21 [Example 3, 3-(4,5,7-Trifluorobenzothiazol-2-yl)methyl-indole-N-acetic Acid]",% Reduction (Suspension),"[1]; 200 mg suspension, Day 2 vs Day-1",36% (3×) and 27% and 25% and −51% and 23% (2×) and 35% and 0% and 20% and 11%
same,Uric Acid Day-1 Suspension,"[1]; 200 mg suspension, before administration (baseline)",5.0 mg/dL (2×) and 6.0 mg/dL and 5.3 mg/dL (2×) and 4.3 mg/dL and 5.2 mg/dL and 5.5 mg/dL and 4.7 mg/dL and 3.3 mg/dL and 6.3 mg/dL and 4.5 mg/dL
same,Uric Acid Day 2 (Suspension),"[1]; 200 mg suspension, day following administration",3.2 mg/dL and 4.4 mg/dL and 4.0 mg/dL (3×) and 6.5 mg/dL and 3.6 mg/dL (2×) and 5.3 mg/dL and 2.1 mg/dL and 5.6 mg/dL and 2.9 mg/dL
same,% reduction (Tablet),"[1]; 200 mg tablet, Day 2 vs Day-1",28% and 27% and 26% and −3% and 16% (2×) and 39% (2×) and −2% and 32% and 41% and −16%
same,Uric Acid Day-1 Tablet,"[1]; 200 mg tablet, before administration (baseline)",5.0 mg/dL and 6.3 mg/dL and 5.3 mg/dL and 5.8 mg/dL and 4.9 mg/dL (3×) and 6.2 mg/dL and 5.2 mg/dL and 5.7 mg/dL and 3.7 mg/dL and 5.1 mg/dL
same,Uric Acid Day 2 (Tablet),"[1]; 200 mg tablet, day following administration",3.6 mg/dL and 4.6 mg/dL and 3.9 mg/dL (2×) and 6.0 mg/dL and 4.1 mg/dL (2×) and 3.8 mg/dL and 5.3 mg/dL and 2.2 mg/dL and 5.7 mg/dL and 3.1 mg/dL
same,% reduction,"[1]; 400 mg, Day 2 vs Day-1",47% and 5% and 67% and 9% and 49% and 43% and 2% and 36% and 45% and 51% and −13% and 24%
same,Uric acid Day-1,"[1]; 400 mg, before administration (baseline)",4.5 mg/dL and 4.3 mg/dL and 6.6 mg/dL and 5.3 mg/dL and 3.7 mg/dL and 5.6 mg/dL and 6.0 mg/dL and 4.7 mg/dL (2×) and 7.7 mg/dL and 6.2 mg/dL and 4.6 mg/dL
same,Uric acid Day 2,"[1]; 400 mg, day following administration",2.4 mg/dL and 4.1 mg/dL and 2.2 mg/dL and 4.8 mg/dL and 1.9 mg/dL and 3.2 mg/dL and 5.9 mg/dL and 3.0 mg/dL and 4.2 mg/dL and 2.3 mg/dL and 7.0 mg/dL and 3.5 mg/dL
same,% reduction,"[1]; 600 mg, Day 2 vs Day-1",−6% and −44% and 45% and 55% and 42% and 2% and 57% and 47% and 37% and 58% and 50%
same,Uric acid Day-1,"[1]; 600 mg, before administration (baseline)",4.7 mg/dL and 4.3 mg/dL and 5.5 mg/dL and 4.4 mg/dL (2×) and 5.9 mg/dL and 4.6 mg/dL and 3.5 mg/dL and 3.4 mg/dL and 3.0 mg/dL and 3.9 mg/dL
same,Uric acid Day 2,"[1]; 600 mg, day following administration",5.0 mg/dL and 33 mg/dL and 6.2 mg/dL and 3.0 mg/dL and 2.0 mg/dL and 3.4 mg/dL and 4.5 mg/dL and 1.5 mg/dL and 1.8 mg/dL and 1.9 mg/dL and 1.7 mg/dL and 2.2 mg/dL
same,Uric Acid Level (mean of all subjects in each group),"[2]; group A 50 mg orally once a day, Day 1 8 Hour",3.94 mg/dL
same,Uric Acid Level (mean of all subjects in each group),"[2]; group A 50 mg orally once a day, Day 1 10 Hour",3.87 mg/dL
same,Uric Acid Level (mean of all subjects in each group),"[2]; group A 50 mg orally once a day, Day 1 12 Hour",3.89 mg/dL
same,Uric Acid Level (mean of all subjects in each group),"[2]; group A 50 mg orally once a day, Day 1 16 Hour",3.98 mg/dL
same,Uric Acid Level (mean of all subjects in each group),"[2]; group A 50 mg orally once a day, Day 1 24 Hour",4.19 mg/dL
same,Uric Acid Level (mean of all subjects in each group),"[2]; group A 50 mg orally once a day, Day 3",3.62 mg/dL
same,Uric Acid Level (mean of all subjects in each group),"[2]; group A 50 mg orally once a day, Day 7 0 Hour",3.36 mg/dL
same,Uric Acid Level (mean of all subjects in each group),"[2]; group A 50 mg orally once a day, Day 7 0.5 Hour",3.33 mg/dL
same,Uric Acid Level (mean of all subjects in each group),"[2]; group A 50 mg orally once a day, Day 7 1 Hour",3.28 mg/dL
same,Uric Acid Level (mean of all subjects in each group),"[2]; group A 50 mg orally once a day, Day 7 2 Hour",3.14 mg/dL
same,Uric Acid Level (mean of all subjects in each group),"[2]; group A 50 mg orally once a day, Day 7 3 Hour",3.03 mg/dL
same,Uric Acid Level (mean of all subjects in each group),"[2]; group A 50 mg orally once a day, Day 7 4 Hour",2.99 mg/dL
same,Uric Acid Level (mean of all subjects in each group),"[2]; group A 50 mg orally once a day, Day 7 6 Hour",3.30 mg/dL
same,Uric Acid Level (mean of all subjects in each group),"[2]; group A 50 mg orally once a day, Day 7 8 Hour",3.34 mg/dL
same,Uric Acid Level (mean of all subjects in each group),"[2]; group A 50 mg orally once a day, Day 7 10 Hour",3.36 mg/dL
same,Uric Acid Level (mean of all subjects in each group),"[2]; group A 50 mg orally once a day, Day 7 12 Hour",3.26 mg/dL
same,Uric Acid Level (mean of all subjects in each group),"[2]; group A 50 mg orally once a day, Day 7 16 Hour",3.07 mg/dL
same,Uric Acid Level (mean of all subjects in each group),"[2]; group A 50 mg orally once a day, Day 7 24 Hour",3.48 mg/dL
same,Uric Acid Level (mean of all subjects in each group),"[2]; group A 50 mg orally once a day, Day 14 0 Hour",3.51 mg/dL
same,Uric Acid Level (mean of all subjects in each group),"[2]; group A 50 mg orally once a day, Day 14 0.5 Hour",3.43 mg/dL
same,Uric Acid Level (mean of all subjects in each group),"[2]; group A 50 mg orally once a day, Day 14 1 Hour",3.41 mg/dL
same,Uric Acid Level (mean of all subjects in each group),"[2]; group A 50 mg orally once a day, Day 14 2 Hour",3.37 mg/dL
same,Uric Acid Level (mean of all subjects in each group),"[2]; group A 50 mg orally once a day, Day 14 3 Hour",3.19 mg/dL
same,Uric Acid Level (mean of all subjects in each group),"[2]; group A 50 mg orally once a day, Day 14 4 Hour",3.17 mg/dL
same,Uric Acid Level (mean of all subjects in each group),"[2]; group A 50 mg orally once a day, Day 14 6 Hour",3.38 mg/dL
same,Uric Acid Level (mean of all subjects in each group),"[2]; group A 50 mg orally once a day, Day 14 8 Hour",3.34 mg/dL
same,Uric Acid Level (mean of all subjects in each group),"[2]; group A 50 mg orally once a day, Day 14 10 Hour",3.24 mg/dL
same,Uric Acid Level (mean of all subjects in each group),"[2]; group B 200 mg orally once a day, Day 1 8 Hour",3.37 mg/dL
same,Uric Acid Level (mean of all subjects in each group),"[2]; group B 200 mg orally once a day, Day 1 10 Hour",3.16 mg/dL
same,Uric Acid Level (mean of all subjects in each group),"[2]; group B 200 mg orally once a day, Day 1 12 Hour",3.12 mg/dL
same,Uric Acid Level (mean of all subjects in each group),"[2]; group B 200 mg orally once a day, Day 1 16 Hour",3.01 mg/dL
same,Uric Acid Level (mean of all subjects in each group),"[2]; group B 200 mg orally once a day, Day 1 24 Hour",3.64 mg/dL
same,Uric Acid Level (mean of all subjects in each group),"[2]; group B 200 mg orally once a day, Day 3",2.94 mg/dL
same,Uric Acid Level (mean of all subjects in each group),"[2]; group B 200 mg orally once a day, Day 7 0 Hour",2.86 mg/dL
same,Uric Acid Level (mean of all subjects in each group),"[2]; group B 200 mg orally once a day, Day 7 0.5 Hour",2.79 mg/dL
same,Uric Acid Level (mean of all subjects in each group),"[2]; group B 200 mg orally once a day, Day 7 1 Hour",2.74 mg/dL
same,Uric Acid Level (mean of all subjects in each group),"[2]; group B 200 mg orally once a day, Day 7 2 Hour",2.61 mg/dL
same,Uric Acid Level (mean of all subjects in each group),"[2]; group B 200 mg orally once a day, Day 7 3 Hour",2.50 mg/dL
same,Uric Acid Level (mean of all subjects in each group),"[2]; group B 200 mg orally once a day, Day 7 4 Hour",2.47 mg/dL
same,Uric Acid Level (mean of all subjects in each group),"[2]; group B 200 mg orally once a day, Day 7 6 Hour",2.72 mg/dL
same,Uric Acid Level (mean of all subjects in each group),"[2]; group B 200 mg orally once a day, Day 7 8 Hour",2.54 mg/dL
same,Uric Acid Level (mean of all subjects in each group),"[2]; group B 200 mg orally once a day, Day 7 10 Hour",2.53 mg/dL
same,Uric Acid Level (mean of all subjects in each group),"[2]; group B 200 mg orally once a day, Day 7 12 Hour",2.44 mg/dL
same,Uric Acid Level (mean of all subjects in each group),"[2]; group B 200 mg orally once a day, Day 7 16 Hour",2.43 mg/dL

# Source: patent US20010044437A1, “Methods for reducing uric acid levels” (priority 2000, published 2001)
